Measured values published in patent publication US6787161B2, “Anti-cancer compounds” (Peplin Biotech Pty. Ltd., priority 1997, dated 2004).

Columns and labels:
MM96L cells = assay: Effect of betaines on MM96L cell numbers; type: cell-based, human; parameters: key to cell numbers rating and morphology: +++ = no effect; − = complete cell death; *d = indicates change to dendritic morphology of the cells; settings: 4 days
Experimental: Betaines of different types were solubilised in sterile MilliQ™ water to a final concentration of 1 mg/ml, and diluted into 0.1 ml tissue culture medium containing 5000 MM96L cells as described previously. Cells were scored after 4 days incubation.

MM96L melanoma cell line = assay: MM96L assay of chromatographic fractions (cell inhibition, reversion to dendritic appearance); type: cell-based, human; settings: at 1 in 5×10^6 dilution
Experimental: Fractions were dried by vacuum centrifugation, reconstituted in 500 μl PBS, and assayed against MM96L cells and in the metallothionein reporter assay as described above. Fractions 13 to 28 all induced complete reversion of MM96L cells to a dendritic appearance, but cell death was not observed. The effect was much more striking in the reporter assay, in which activity was still observed at a dilution of 1/10,000 (i.e. at a final concentration in the culture of 1/100,000).
Fractions 14 and 15 from the HPLC subfractionation described in Example 7 and FIG. 3 were further purified by repeated chromatography, selecting the dominant symmetrical peak with constant diode array spectra (e.g. fractions 14 and 15; results for fraction 14 are shown in FIGS. 4 and 5). Activity of the purified fractions in causing reversion of MM96L to the dendritic appearance was confirmed by cell assay.
(a) The ether-soluble fraction, prepared as in Example 7, was reconstituted in ethylene glycol dimethyl ether (DME) and chromatographed on 20×20 cm silica gel plates, using chloroform:ethyl acetate (82:18) as the developing solvent (FIG. 7). The plate was viewed on a UV light box and the UV positive bands were identified, excised from the gel, eluted with DME, and tested for inhibitory activity and morphology reversal against MM96L melanoma cell line. […]

| Molecule | final concentration at which cell numbers were depressed or inhibited (MM96L cells) [µg/mL] | cell numbers rating and morphology (MM96L cells; dilution 1/50 of 1 mg/ml) | cell numbers rating and morphology (MM96L cells; dilution 1/500 of 1 mg/ml) | cell numbers rating and morphology (MM96L cells; dilution 1/5,000 of 1 mg/ml) | final concentration active in reversion to complete dendritic morphology (MM96L melanoma cell line) [ng/ml] |
| --- | --- | --- | --- | --- | --- |
| C[N+](C)(C)CCC(=O)O.[Cl-] [β-alanine betaine hydrochloride] | 20 | ++d | +++ | +++ |  |
| 20-acetyl-ingenol-3-angelate |  |  |  |  | 1 |
| CN1CCC[C@H]1C(=O)O [N-methyl proline, free base, N-methyl proline] |  | +++ | +++ | +++ |  |
| C[N+]1(C)CCC[C@H]1C(=O)[O-] [stachydrine (proline betaine), free base, stachydrine (proline betaine)] |  | +++ | +++ | +++ |  |
| C[N+]1(C)C[C@H](O)C[C@H]1C(=O)[O-] [t-4 hydroxy N,N-dimethyl proline] | 20 | +pd | +++ | +++ |  |
| C[N+](C)(C)CC(=O)[O-] [glycine betaine] |  | +++ | +++ | +++ |  |
| CN1CC[C@@H](O)[C@@H]1C(=O)O [t-3-hydroxy N-methyl proline, free base, t-3-hydroxy N-methyl proline] |  | +++ | +++ | +++ |  |
| CN1C[C@@H](O)C[C@@H]1C(=O)O [t-4-hydroxy N-methyl proline, free base, t-4-hydroxy N-methyl proline] |  | +++ | +++ | +++ |  |
